Converted amounts (≈) assume the structure as drawn. Bounds are passed on as bounds.

Series [1] in a line: Clearance in human hepatocytes assessed per million cells at 1 uM after 5 to 90 mins by LC-MS/MS analysis. It counts as ADME, cell-based, Hepatocyte. To be noted: read-out: CLH.
Series [2] is described as follows: Solubility in PG/EtOH (96%) at 30 mg/mL after 24 hrs by UV-spectrometric method. Format: physicochemical. To be noted: PG/EtOH (96%).
Series [3] is described as follows: Solubility in pH 7.4 phosphate buffer solution at 100 uM after 24 hrs by HPLC method. It counts as physicochemical. The settings on record: for solubility: buffer, pH 7.4, 24 h, 100 µM; for solubility at 24 h, 100 µM: phosphate buffer, pH 7.4.
Series [4] relates to HuT78. Nature of the series: Pro-apoptotic activity in human HUT78 cells after 18 hrs by caspase-Glo 3/7 assay. The settings on record: HuT78, 18 h. It counts as functional, cell-based.
Series [5] has as its target Histone deacetylase 5 (Homo sapiens, UniProt Q9UQL6). Nature of the series: Inhibition of human recombinant HDAC5 using fluorogenic HDAC substrate class 2a after 30 mins by fluorimetrc method.
The target in series [6] is Histone deacetylase 9 (Homo sapiens, UniProt Q9UKV0). Nature of the series: Inhibition of human recombinant HDAC9 using fluorogenic HDAC substrate class 2a after 30 mins by fluorimetrc method.
Series [7] has as its target T1, Polyamine deacetylase HDAC10 (Homo sapiens, UniProt Q969S8).
T1 sequence (Q969S8 whole entry): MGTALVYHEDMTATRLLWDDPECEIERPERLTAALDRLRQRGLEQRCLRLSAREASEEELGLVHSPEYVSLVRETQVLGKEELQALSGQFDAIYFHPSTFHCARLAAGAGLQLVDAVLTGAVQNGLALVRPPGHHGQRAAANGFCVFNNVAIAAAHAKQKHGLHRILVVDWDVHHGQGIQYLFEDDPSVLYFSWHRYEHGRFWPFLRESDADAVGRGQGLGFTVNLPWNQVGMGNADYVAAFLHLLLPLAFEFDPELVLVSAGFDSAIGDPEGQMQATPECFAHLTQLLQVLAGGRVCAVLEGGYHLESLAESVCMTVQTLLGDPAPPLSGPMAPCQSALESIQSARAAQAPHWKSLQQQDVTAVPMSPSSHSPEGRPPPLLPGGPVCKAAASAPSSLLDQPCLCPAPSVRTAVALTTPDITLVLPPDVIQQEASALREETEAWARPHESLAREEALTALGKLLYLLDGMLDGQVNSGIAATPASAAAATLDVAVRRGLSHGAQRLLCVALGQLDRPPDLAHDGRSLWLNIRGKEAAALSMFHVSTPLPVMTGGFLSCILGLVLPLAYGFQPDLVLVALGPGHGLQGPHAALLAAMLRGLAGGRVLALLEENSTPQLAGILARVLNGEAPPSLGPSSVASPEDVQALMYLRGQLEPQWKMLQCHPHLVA
Nature of the series: Inhibition of human recombinant HDAC10 using fluorogenic HDAC substrate after 45 mins by fluorimetrc method.

Series [8] deals with T2, NAD-dependent protein deacetylase sirtuin-1 (Homo sapiens, UniProt Q96EB6).
T2 sequence (Q96EB6 whole entry): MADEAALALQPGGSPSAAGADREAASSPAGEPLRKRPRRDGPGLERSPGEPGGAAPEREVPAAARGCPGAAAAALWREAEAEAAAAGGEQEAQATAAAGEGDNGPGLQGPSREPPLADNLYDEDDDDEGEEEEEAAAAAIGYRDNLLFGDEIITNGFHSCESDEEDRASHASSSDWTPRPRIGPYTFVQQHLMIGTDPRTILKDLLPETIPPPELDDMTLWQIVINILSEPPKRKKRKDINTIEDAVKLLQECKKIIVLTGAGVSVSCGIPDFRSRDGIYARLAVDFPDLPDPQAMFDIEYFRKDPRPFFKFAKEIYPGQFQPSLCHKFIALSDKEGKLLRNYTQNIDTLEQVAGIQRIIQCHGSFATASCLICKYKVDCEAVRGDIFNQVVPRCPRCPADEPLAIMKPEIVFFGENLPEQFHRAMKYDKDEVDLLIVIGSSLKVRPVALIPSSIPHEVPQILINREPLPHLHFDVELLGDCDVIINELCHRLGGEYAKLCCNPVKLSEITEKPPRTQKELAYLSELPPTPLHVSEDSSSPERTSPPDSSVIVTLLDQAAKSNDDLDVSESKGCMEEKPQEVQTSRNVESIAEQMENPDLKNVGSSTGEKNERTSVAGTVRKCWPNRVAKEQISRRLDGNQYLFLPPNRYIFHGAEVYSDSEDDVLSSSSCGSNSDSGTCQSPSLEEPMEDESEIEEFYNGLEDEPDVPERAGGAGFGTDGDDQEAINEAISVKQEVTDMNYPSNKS
Nature of the series: Inhibition of human recombinant SIRT1 using fluorogenic HDAC substrate after 20 mins by fluorimetrc method.

Series [9] deals with T3, NAD-dependent protein deacetylase sirtuin-2 (Homo sapiens, UniProt Q8IXJ6).
T3 sequence (Q8IXJ6 whole entry): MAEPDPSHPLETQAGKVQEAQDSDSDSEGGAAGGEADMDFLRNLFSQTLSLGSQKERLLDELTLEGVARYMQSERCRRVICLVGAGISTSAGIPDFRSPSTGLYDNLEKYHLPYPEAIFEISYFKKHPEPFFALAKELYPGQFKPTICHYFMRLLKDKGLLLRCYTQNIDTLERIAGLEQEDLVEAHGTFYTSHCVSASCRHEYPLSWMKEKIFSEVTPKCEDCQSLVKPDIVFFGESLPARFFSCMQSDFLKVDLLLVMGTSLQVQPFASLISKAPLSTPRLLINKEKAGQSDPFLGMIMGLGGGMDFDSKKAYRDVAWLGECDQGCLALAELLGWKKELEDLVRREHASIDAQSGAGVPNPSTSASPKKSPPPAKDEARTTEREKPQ
The series can be described thus: Inhibition of human recombinant SIRT2 using fluoro-lysine sirtuin 2 deacetylase substrate after 60 mins by fluorimetrc method.

For series [10], the target named is T4, NAD-dependent protein deacetylase sirtuin-3, mitochondrial (Homo sapiens, UniProt Q9NTG7).
T4 sequence (Q9NTG7 whole entry): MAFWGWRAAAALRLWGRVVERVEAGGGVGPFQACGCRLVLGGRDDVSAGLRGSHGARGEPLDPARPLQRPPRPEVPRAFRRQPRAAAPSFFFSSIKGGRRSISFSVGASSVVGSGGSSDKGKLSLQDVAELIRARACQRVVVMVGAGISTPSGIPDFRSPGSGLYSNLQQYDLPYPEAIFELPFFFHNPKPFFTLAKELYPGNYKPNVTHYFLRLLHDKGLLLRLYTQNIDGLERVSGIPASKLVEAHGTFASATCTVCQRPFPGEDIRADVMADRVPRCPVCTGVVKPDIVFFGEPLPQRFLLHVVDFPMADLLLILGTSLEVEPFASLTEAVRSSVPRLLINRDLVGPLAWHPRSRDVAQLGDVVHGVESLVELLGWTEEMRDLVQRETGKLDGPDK
Nature of the series: Inhibition of human recombinant SIRT3 using fluoro-lysine sirtuin 2 deacetylase substrate after 45 mins by fluorimetrc method.

Series [11] has as its target T5, NAD-dependent protein deacetylase sirtuin-7 (Homo sapiens, UniProt Q9NRC8).
T5 sequence (Q9NRC8 whole entry): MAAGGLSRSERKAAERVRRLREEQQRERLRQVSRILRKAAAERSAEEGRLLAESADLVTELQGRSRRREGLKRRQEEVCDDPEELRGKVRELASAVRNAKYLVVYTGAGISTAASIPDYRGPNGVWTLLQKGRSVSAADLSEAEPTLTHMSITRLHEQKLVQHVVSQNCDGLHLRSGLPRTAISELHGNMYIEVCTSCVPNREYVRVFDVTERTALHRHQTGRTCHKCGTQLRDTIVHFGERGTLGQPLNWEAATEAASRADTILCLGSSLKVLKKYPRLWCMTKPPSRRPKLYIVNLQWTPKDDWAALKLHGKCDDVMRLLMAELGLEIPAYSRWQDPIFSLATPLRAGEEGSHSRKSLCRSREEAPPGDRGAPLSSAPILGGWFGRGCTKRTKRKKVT
The series can be described thus: Inhibition of SIRT7 (unknown origin).

Series [12] deals with Histone deacetylase 1 (Homo sapiens, UniProt Q13547). Nature of the series: Inhibition of human recombinant HDAC1 using Fluor de Lys as substrate after 2 hrs by fluorescence method.
Chain of Histone deacetylase 1 (Q13547 whole entry): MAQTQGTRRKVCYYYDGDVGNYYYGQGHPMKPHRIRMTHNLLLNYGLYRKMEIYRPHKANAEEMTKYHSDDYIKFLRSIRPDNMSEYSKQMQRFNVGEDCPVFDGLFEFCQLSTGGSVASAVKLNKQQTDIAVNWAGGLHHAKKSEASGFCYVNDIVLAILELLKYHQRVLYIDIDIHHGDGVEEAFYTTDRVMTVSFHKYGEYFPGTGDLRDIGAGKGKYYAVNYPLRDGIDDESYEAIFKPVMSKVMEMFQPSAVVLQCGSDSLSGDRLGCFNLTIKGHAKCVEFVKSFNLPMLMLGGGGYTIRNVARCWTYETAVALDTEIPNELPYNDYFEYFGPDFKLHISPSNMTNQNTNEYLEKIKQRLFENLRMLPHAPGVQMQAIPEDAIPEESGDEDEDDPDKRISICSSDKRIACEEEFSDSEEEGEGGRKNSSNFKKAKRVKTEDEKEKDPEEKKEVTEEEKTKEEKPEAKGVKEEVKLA

Chain of Histone deacetylase 9 (Q9UKV0 whole entry): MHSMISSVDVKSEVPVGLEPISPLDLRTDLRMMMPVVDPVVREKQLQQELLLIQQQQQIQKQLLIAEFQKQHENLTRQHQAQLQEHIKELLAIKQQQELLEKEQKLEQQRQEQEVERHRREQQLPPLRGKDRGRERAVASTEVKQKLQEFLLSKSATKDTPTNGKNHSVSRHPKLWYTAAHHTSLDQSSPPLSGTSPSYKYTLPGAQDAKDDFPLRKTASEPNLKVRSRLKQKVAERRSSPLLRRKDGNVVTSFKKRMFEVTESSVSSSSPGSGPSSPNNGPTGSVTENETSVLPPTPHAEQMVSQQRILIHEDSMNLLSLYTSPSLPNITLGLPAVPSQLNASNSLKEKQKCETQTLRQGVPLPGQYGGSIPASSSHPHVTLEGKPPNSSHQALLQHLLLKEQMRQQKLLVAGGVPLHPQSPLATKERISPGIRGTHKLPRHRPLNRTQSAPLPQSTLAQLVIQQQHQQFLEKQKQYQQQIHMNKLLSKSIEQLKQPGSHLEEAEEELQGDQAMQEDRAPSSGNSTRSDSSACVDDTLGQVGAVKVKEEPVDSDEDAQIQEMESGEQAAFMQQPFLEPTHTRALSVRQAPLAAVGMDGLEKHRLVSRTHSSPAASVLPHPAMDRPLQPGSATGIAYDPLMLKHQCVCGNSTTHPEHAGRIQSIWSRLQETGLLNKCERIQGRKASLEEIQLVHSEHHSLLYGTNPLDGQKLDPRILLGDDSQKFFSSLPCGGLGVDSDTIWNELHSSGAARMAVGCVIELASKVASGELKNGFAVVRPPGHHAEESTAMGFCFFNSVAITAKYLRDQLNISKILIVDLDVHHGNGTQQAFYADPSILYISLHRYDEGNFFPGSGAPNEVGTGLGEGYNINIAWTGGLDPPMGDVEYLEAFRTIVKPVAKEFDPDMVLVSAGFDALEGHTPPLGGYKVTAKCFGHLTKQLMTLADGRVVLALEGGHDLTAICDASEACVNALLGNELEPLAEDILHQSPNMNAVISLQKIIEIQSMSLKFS
Chain of Histone deacetylase 5 (Q9UQL6 whole entry): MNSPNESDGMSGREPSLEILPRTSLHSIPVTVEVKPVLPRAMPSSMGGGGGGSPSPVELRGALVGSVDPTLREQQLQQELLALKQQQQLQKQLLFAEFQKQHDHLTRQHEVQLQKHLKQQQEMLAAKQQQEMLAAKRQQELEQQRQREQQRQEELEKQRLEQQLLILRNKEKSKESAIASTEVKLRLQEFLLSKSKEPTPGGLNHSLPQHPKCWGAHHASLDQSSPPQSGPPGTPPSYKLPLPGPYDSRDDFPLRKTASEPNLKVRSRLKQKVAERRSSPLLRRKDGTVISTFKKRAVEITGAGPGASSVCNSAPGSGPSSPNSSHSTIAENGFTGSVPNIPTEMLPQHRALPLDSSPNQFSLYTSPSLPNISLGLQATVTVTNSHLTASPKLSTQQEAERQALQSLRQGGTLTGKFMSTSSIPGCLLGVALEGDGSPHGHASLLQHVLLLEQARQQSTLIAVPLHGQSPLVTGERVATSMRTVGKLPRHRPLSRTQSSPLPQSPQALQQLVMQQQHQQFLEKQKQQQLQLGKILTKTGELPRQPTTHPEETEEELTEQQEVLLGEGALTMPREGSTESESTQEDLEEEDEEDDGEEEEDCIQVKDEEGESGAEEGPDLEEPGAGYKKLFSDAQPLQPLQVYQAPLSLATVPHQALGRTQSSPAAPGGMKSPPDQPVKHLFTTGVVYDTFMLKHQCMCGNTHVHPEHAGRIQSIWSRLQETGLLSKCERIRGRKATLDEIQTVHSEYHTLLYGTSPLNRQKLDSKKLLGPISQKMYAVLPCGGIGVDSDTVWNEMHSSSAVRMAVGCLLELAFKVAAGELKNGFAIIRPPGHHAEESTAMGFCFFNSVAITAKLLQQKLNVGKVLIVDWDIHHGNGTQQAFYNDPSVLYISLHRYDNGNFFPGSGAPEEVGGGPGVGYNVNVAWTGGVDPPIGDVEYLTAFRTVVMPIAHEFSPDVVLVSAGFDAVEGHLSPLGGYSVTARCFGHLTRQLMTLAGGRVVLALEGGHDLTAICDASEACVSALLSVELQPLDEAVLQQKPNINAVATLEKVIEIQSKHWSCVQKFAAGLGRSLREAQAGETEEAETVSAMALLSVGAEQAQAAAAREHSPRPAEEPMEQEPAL

As for `Cn1cc(CNCC2CCN(c3ncc(C(=O)NO)cn3)CC2)c2ccccc21` [QUISINOSTAT], the hepatocyte CLint at 1 µM in series [1] was determined as 9.8 µL/min/1e6 cells. The solubility at 24 h in series [2] was determined as 9100 µM (≈ 3590 µg/mL). The compound further showed a solubility in series [3] above 97 µM. In series [4], this compound registered an EC50 of 6.5 nM. The Ki in [5] is 4.3 nM; in series [6], 5.3 nM; in series [7], 4.4 nM; in [8], above 10000 nM; in [9], above 10000 nM; in [10], above 10000 nM. Further, in [11], the inhibition constant Ki was above 10000 nM.

`O=C(CCCCC(Cc1ccccc1)Nc1c(Nc2ccc(C(F)(F)F)cc2)c(=O)c1=O)NO` (racemic): in [1], the hepatocyte CLint at 1 µM amounted to 6.6 µL/min/1e6 cells. In series [2], this compound displayed a solubility at 24 h of 5700 µM (≈ 2710 µg/mL). Moreover, in [3], the solubility was below 1 µM. The Ki in series [12] worked out at 1.9 nM. In series [4], this compound came in with an EC50 of 38 nM.

`Cc1[nH]c2ccccc2c1CCNCc1ccc(/C=C/C(=O)NO)cc1` [PANOBINOSTAT]: the hepatocyte CLint at 1 µM in series [1] stood at 8.5 µL/min/1e6 cells. This compound gave a solubility at 24 h in [2] of 20000 µM (≈ 6990 µg/mL). The concentration in solution in series [3] (solubility at 24 h, 100 µM) was 69 µM (≈ 24.1 µg/mL). The compound further yielded an EC50 in [4] of 4.3 nM. For the same compound, the Ki in series [8], in series [9], in series [10] and in series [11] was above 10000 nM in each case.

`C[C@@H](Nc1c(NCCCCCC(=O)NO)c(=O)c1=O)c1ccccc1`: the hepatocyte CLint at 1 µM in [1] is below 5 µL/min/1e6 cells. In series [2], this compound yielded a solubility at 24 h of 39000 µM (≈ 13500 µg/mL). In series [3], this compound had a solubility at 24 h, 100 µM of 80 µM (≈ 27.6 µg/mL). The Ki in series [12] was 4.8 nM. For the same compound, in series [4], it took 100 nM to reach a half-maximal effect (EC50).

On to `C[C@H](CCCCC(=O)NO)Nc1c(Nc2ccc(N(C)C)cc2)c(=O)c1=O`, for which the hepatocyte CLint at 1 µM in series [1] is below 5 µL/min/1e6 cells. Further, the concentration in solution in series [2] (solubility at 24 h) was 27000 µM (≈ 10100 µg/mL). The same compound had a solubility at 24 h, 100 µM in series [3] of 80 µM (≈ 30 µg/mL). The Ki in series [12] came out at 2.7 nM. For the same compound, the response in [4] was half-maximal at 13 nM (EC50).

On to `O=C(CCCCCNc1c(Nc2ccccc2)c(=O)c1=O)NO`, for which the hepatocyte CLint at 1 µM in series [1] is below 4.8 µL/min/1e6 cells. The compound further gave a solubility at 24 h in series [2] of 2200 µM (≈ 698 µg/mL). Besides, in series [3], the solubility at 24 h, 100 µM was 47 µM (≈ 14.9 µg/mL). In addition, the Ki in [12] stood at 0.29 nM. For the same compound, in [4], the EC50 came out at 28 nM.

With `O=C(CCCCCCNc1c(Nc2ccccc2)c(=O)c1=O)NO`, the hepatocyte CLint at 1 µM in series [1] is below 5 µL/min/1e6 cells. In addition, in [2], the solubility at 24 h came to 1800 µM (≈ 596 µg/mL). This compound also displayed a solubility at 24 h, 100 µM in series [3] of 6 µM (≈ 1.99 µg/mL). In addition, the Ki in [12] was 0.56 nM. Besides, the response in series [4] was half-maximal at 26 nM (EC50).

Take `Cc1ccccc1Nc1c(NCCCCCC(=O)NO)c(=O)c1=O`: in [1], the hepatocyte CLint at 1 µM is below 5 µL/min/1e6 cells. In addition, the concentration in solution in series [2] (solubility at 24 h) was 12000 µM (≈ 3980 µg/mL). Besides, the solubility at 24 h, 100 µM in [3] came to 89 µM (≈ 29.5 µg/mL). Further, in series [12], the Ki stood at 4.4 nM. In series [4], the EC50 was 280 nM.

Regarding `Cc1cccc([C@@H](C)Nc2c(NCCCCCC(=O)NO)c(=O)c2=O)c1`, in [1], the hepatocyte CLint at 1 µM was below 5 µL/min/1e6 cells. Besides, the solubility at 24 h in series [2] came to 82000 µM (≈ 29500 µg/mL). The compound further returned a solubility at 24 h, 100 µM in series [3] of 89 µM (≈ 32 µg/mL). In addition, the Ki in series [12] is 11 nM. In [4], this compound returned an EC50 of 160 nM.

Usually solubility stands for the concentration that dissolves in the medium under given conditions. By EC50 is commonly meant the concentration needed to bring the measured effect to its halfway point. High values mean a less potent agent, low ones a more potent agent. One may read the Ki as the equilibrium dissociation constant of an inhibitor or competing ligand from its target.
